{"source": "patent US8192962B2", "about": "“Processes for detecting toxic substances” (Daikin Industries, Ltd., priority 2001, dated 2012)", "system": "Mitochondria-located protein genes", "assay": "DNA chip mRNA expression in yeast, mitochondria-located protein genes (Table 2)", "assay_type": "cell-based, Saccharomyces cerevisiae S288C", "conditions": "cells incubated two hours with the chemical substance", "outline": "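Expression change after 2 h toxicant exposure (growth-inhibiting, sub-lethal) of log-phase S. cerevisiae S288C at 25° C. Oligo-dT-purified mRNA was labeled with Cy3-dUTP or Cy5-dUTP and hybridized >12 h at 65° C. to a genome-wide chip; ratio of scanned fluorescence to control.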", "data": [{"smiles": "N#Cc1c(Cl)c(Cl)c(Cl)c(C#N)c1Cl", "note": "[(9), 2,4,5,6-tetrachloro-1,3-benzenedicarbonitrile]", "values": [{"measurement": "The level of expressed mRNA in the presence of chemical substance/The level of expressed mRNA in the absence of chemical substance", "setting": "yeast gene YAL039C", "value": 1.6}, {"measurement": "The level of expressed mRNA in the presence of chemical substance/The level of expressed mRNA in the absence of chemical substance", "setting": "yeast gene YBL022C", "value": 2.8}, {"measurement": "The level of expressed mRNA in the presence of chemical substance/The level of expressed mRNA in the absence of chemical substance", "setting": "yeast gene YBL030C", "value": 0.4}, {"measurement": "The level of expressed mRNA in the presence of chemical substance/The level of expressed mRNA in the absence of chemical substance", "setting": "yeast gene YBL038W", "value": 1.4}, {"measurement": "The level of expressed mRNA in the presence of chemical substance/The level of expressed mRNA in the absence of chemical substance", "setting": "yeast gene YBL099W", "value": 0.9}, {"measurement": "The level of expressed mRNA in the presence of chemical substance/The level of expressed mRNA in the absence of chemical substance", "setting": "yeast gene YBR003W", "value": 1.0}, {"measurement": "The level of expressed mRNA in the presence of chemical substance/The level of expressed mRNA in the absence of chemical substance", "setting": "yeast gene YBR044C", "value": 0.8}, {"measurement": "The level of expressed mRNA in the presence of chemical substance/The level of expressed mRNA in the absence of chemical substance", "setting": "yeast gene YBR091C", "value": 0.7}, {"measurement": "The level of expressed mRNA in the presence of chemical substance/The level of expressed mRNA in the absence of chemical substance", "setting": "yeast gene YBR122C", "value": 1.1}, {"measurement": "The level of expressed mRNA in the presence of chemical substance/The level of expressed mRNA in the absence of chemical substance", "setting": "yeast gene YBR185C", "value": 0.9}, {"measurement": "The level of expressed mRNA in the presence of chemical substance/The level of expressed mRNA in the absence of chemical substance", "setting": "yeast gene YBR221C", "value": 1.0}, {"measurement": "The level of expressed mRNA in the presence of chemical substance/The level of expressed mRNA in the absence of chemical substance", "setting": "yeast gene YBR251W", "value": 0.5}, {"measurement": "The level of expressed mRNA in the presence of chemical substance/The level of expressed mRNA in the absence of chemical substance", "setting": "yeast gene YBR282W", "value": 1.0}, {"measurement": "The level of expressed mRNA in the presence of chemical substance/The level of expressed mRNA in the absence of chemical substance", "setting": "yeast gene YCL057W", "value": 4.2}, {"measurement": "The level of expressed mRNA in the presence of chemical substance/The level of expressed mRNA in the absence of chemical substance", "setting": "yeast gene YCR046C", "value": 1.9}, {"measurement": "The level of expressed mRNA in the presence of chemical substance/The level of expressed mRNA in the absence of chemical substance", "setting": "yeast gene YCR083W", "value": 1.8}, {"measurement": "The level of expressed mRNA in the presence of chemical substance/The level of expressed mRNA in the absence of chemical substance", "setting": "yeast gene YDL067C", "value": 0.9}, {"measurement": "The level of expressed mRNA in the presence of chemical substance/The level of expressed mRNA in the absence of chemical substance", "setting": "yeast gene YDL181W", "value": 0.7}, {"measurement": "The level of expressed mRNA in the presence of chemical substance/The level of expressed mRNA in the absence of chemical substance", "setting": "yeast gene YDL198C", "value": 1.9}, {"measurement": "The level of expressed mRNA in the presence of chemical substance/The level of expressed mRNA in the absence of chemical substance", "setting": "yeast gene YDR079W", "value": 0.9}, {"measurement": "The level of expressed mRNA in the presence of chemical substance/The level of expressed mRNA in the absence of chemical substance", "setting": "yeast gene YDR178W", "value": 0.9}, {"measurement": "The level of expressed mRNA in the presence of chemical substance/The level of expressed mRNA in the absence of chemical substance", "setting": "yeast gene YDR231C", "value": 1.5}, {"measurement": "The level of expressed mRNA in the presence of chemical substance/The level of expressed mRNA in the absence of chemical substance", "setting": "yeast gene YDR258C", "value": 4.9}, {"measurement": "The level of expressed mRNA in the presence of chemical substance/The level of expressed mRNA in the absence of chemical substance", "setting": "yeast gene YDR298C", "value": 1.0}, {"measurement": "The level of expressed mRNA in the presence of chemical substance/The level of expressed mRNA in the absence of chemical substance", "setting": "yeast gene YDR347W", "value": 0.8}, {"measurement": "The level of expressed mRNA in the presence of chemical substance/The level of expressed mRNA in the absence of chemical substance", "setting": "yeast gene YDR377W", "value": 1.0}, {"measurement": "The level of expressed mRNA in the presence of chemical substance/The level of expressed mRNA in the absence of chemical substance", "setting": "yeast gene YDR529C", "value": 0.5}, {"measurement": "The level of expressed mRNA in the presence of chemical substance/The level of expressed mRNA in the absence of chemical substance", "setting": "yeast gene YEL024W", "value": 0.7}, {"measurement": "The level of expressed mRNA in the presence of chemical substance/The level of expressed mRNA in the absence of chemical substance", "setting": "yeast gene YEL039C", "value": 1.2}, {"measurement": "The level of expressed mRNA in the presence of chemical substance/The level of expressed mRNA in the absence of chemical substance", "setting": "yeast gene YER178W", "value": 1.7}, {"measurement": "The level of expressed mRNA in the presence of chemical substance/The level of expressed mRNA in the absence of chemical substance", "setting": "yeast gene YFL016C", "value": 6.4}, {"measurement": "The level of expressed mRNA in the presence of chemical substance/The level of expressed mRNA in the absence of chemical substance", "setting": "yeast gene YGL018C", "value": 0.5}, {"measurement": "The level of expressed mRNA in the presence of chemical substance/The level of expressed mRNA in the absence of chemical substance", "setting": "yeast gene YGL187C", "value": 0.6}, {"measurement": "The level of expressed mRNA in the presence of chemical substance/The level of expressed mRNA in the absence of chemical substance", "setting": "yeast gene YGL191W", "value": 1.1}, {"measurement": "The level of expressed mRNA in the presence of chemical substance/The level of expressed mRNA in the absence of chemical substance", "setting": "yeast gene YGR008C", "value": 3.1}, {"measurement": "The level of expressed mRNA in the presence of chemical substance/The level of expressed mRNA in the absence of chemical substance", "setting": "yeast gene YGR028W", "value": 1.7}, {"measurement": "The level of expressed mRNA in the presence of chemical substance/The level of expressed mRNA in the absence of chemical substance", "setting": "yeast gene YGR062C", "value": 1.0}, {"measurement": "The level of expressed mRNA in the presence of chemical substance/The level of expressed mRNA in the absence of chemical substance", "setting": "yeast gene YGR076C", "value": 1.2}, {"measurement": "The level of expressed mRNA in the presence of chemical substance/The level of expressed mRNA in the absence of chemical substance", "setting": "yeast gene YGR082W", "value": 0.6}, {"measurement": "The level of expressed mRNA in the presence of chemical substance/The level of expressed mRNA in the absence of chemical substance", "setting": "yeast gene YGR174C", "value": 1.8}, {"measurement": "The level of expressed mRNA in the presence of chemical substance/The level of expressed mRNA in the absence of chemical substance", "setting": "yeast gene YGR244C", "value": 1.4}, {"measurement": "The level of expressed mRNA in the presence of chemical substance/The level of expressed mRNA in the absence of chemical substance", "setting": "yeast gene YHR008C", "value": 1.7}, {"measurement": "The level of expressed mRNA in the presence of chemical substance/The level of expressed mRNA in the absence of chemical substance", "setting": "yeast gene YIL155C", "value": 2.5}, {"measurement": "The level of expressed mRNA in the presence of chemical substance/The level of expressed mRNA in the absence of chemical substance", "setting": "yeast gene YJL096W", "value": 1.0}, {"measurement": "The level of expressed mRNA in the presence of chemical substance/The level of expressed mRNA in the absence of chemical substance", "setting": "yeast gene YJL102W", "value": 3.1}, {"measurement": "The level of expressed mRNA in the presence of chemical substance/The level of expressed mRNA in the absence of chemical substance", "setting": "yeast gene YJL133W", "value": 0.6}, {"measurement": "The level of expressed mRNA in the presence of chemical substance/The level of expressed mRNA in the absence of chemical substance", "setting": "yeast gene YJL166W", "value": 1.3}, {"measurement": "The level of expressed mRNA in the presence of chemical substance/The level of expressed mRNA in the absence of chemical substance", "setting": "yeast gene YJL180C", "value": 1.4}, {"measurement": "The level of expressed mRNA in the presence of chemical substance/The level of expressed mRNA in the absence of chemical substance", "setting": "yeast gene YJR045C", "value": 3.2}, {"measurement": "The level of expressed mRNA in the presence of chemical substance/The level of expressed mRNA in the absence of chemical substance", "setting": "yeast gene YJR077C", "value": 0.4}]}]}
